Reference: patent US20190000908A1, “COMPOSITIONS AND METHODS FOR TREATING AND/OR PREVENTING A URINARY TRACT INFECTION” (priority 2017, published 2019)

How the values were obtained:
Type in all cases: cell-based
E. coli NCTC 4169 = assay: Human Red Blood Cell (HRBC) agglutination assay, E. coli NCTC 4169; conditions: strain 4169, FIG. 1 Raw C
Experimental: (§1) A whole blood (type 0 positive) was acquired from a volunteer and stored with EDTA at 4° C. Before the agglutination experiment, the red blood cells were isolated by centrifugation at 800 rpm for 15 minutes (in order to remove the platelets and plasma). The resulting red blood cells were suspended in phosphate buffered (PBS, pH 7.4) and washed three times to remove EDTA and other blood components, after each wash the supernatant was removed and the remaining cells were resuspended in PBS. Finally, RBC were diluted in 10 ml of PBS to create 1% RBC suspension that was stored at 4° C. until use.
(§2) Standard E. coli strains (NCTC 4169 and NCTC 9775) were grown on TSA plates for 24 h at 37° C. Colony was collected with sterile culturing needle and cells suspended in PBS and washed three times with PBS, after each wash the supernatant was removed. The cells were resuspended in PBS at final concentration of 10^9 cells/ml and stored at 4° C. for an hour.
(§3) The experiments were conducted in round bottom 96-well plate, with final volume 200 μl, made of 98 μl of the 1% RBC suspension, 2 μl extract (or PBS) and 100 μl bacterial suspension or PBS (as control). Extract were prepared in advance at different concentrations in PBS (10 mg/ml, 3 mg/ml, 1 mg/ml, 50 μg/ml and 1 μg/ml). […]

[1] = system: E. coli strains (NCTC 4169 and NCTC 9775); assay: Human Red Blood Cell (HRBC) agglutination assay, strain not specified for the result; conditions: human RBC + E. coli; strain not stated
Experimental: as §1, §2, §3

E. coli NCTC 9775 = assay: Human Red Blood Cell (HRBC) agglutination assay, E. coli NCTC 9775; conditions: strain 9775, FIG. 1 Raw C
Experimental: as §1, §2, §3

SMILES: O=C[C@@H](O)[C@@H](O)[C@H](O)[C@H](O)CO [D-mannose, D-Mannose]
- D-mannose sensitivity of bacteria-induced RBC agglutination (E. coli NCTC 4169): not D-mannose sensitive
- concentration that induced agglutination prevention/inhibition [1]: 5 to 10 mg/mL
- D-mannose sensitivity of bacteria-induced RBC agglutination (E. coli NCTC 9775): D-mannose sensitive
